The record followed here is patent US10844102B2, “Peptides, compositions, and methods for stimulating subcutaneous adipogenesis” (The Regents of the University of California, priority 2014, dated 2020).

For assay [1], the system named is mammary fat pads of aged female rats. The experiment in a line: In vivo adipogenesis in mammary fat pads of aged female rats (microCT). Set-up: species or system rat. The settings on record: eight-month-old female rats, 100 μg peptide in 100 μl collagen gel, 7 days, versus collagen only. The protocol: Peptides were also tested for their ability to stimulate adipogenesis in mammary fat pads of aged (8 month old) female rats in vivo. Mammary fat pads are rich in adipocyte progenitor cells.
Eight-month-old female Sprague Dawley rats (retired breeders) were injected with 100 μl collagen gel (Vitrogen) containing 100 μg peptide into the fourth right mammary fat pad, as depicted in FIG. 10. […] The collagen and peptides were injected at the top of the ROI nearest the nipple. The collagen and peptide diffuse into the fat pad following injection and active peptides target RHAMM-positive progenitor cells present in the fat pad. Collagen alone was injected into the fourth left mammary fat pad as a negative control.
Following injection of the collagen and peptide or collagen alone, animals were maintained on rat chow and water for 7 days and then euthanized. Micro-computed tomography (microCT) imaging of the […] was performed on animals using a Locus Ultra scanner (GE Healthcare, London, ON, Canada). The animals were imaged ex vivo with an X-ray tube voltage of 80 kV and a tube current of 55 mA. Nine hundred projections of data were acquired at an angular increment of 0.4 degrees around the rat in an exposure time of 16 ms. The data were then reconstructed into a 3D volume image with a voxel size of 154 μm. The subcutaneous mammary fat measured in 10×5×3 mm rectangular area (the region of interest (ROI)) below the nipple, avoiding measurement of underlying visceral fat (see the region labeled “fat pad” in FIG. 11). The amount of fat in the ROI was calculated as mass (mg) per ROI.

In a further assay the test system is 3T3L cells. The assay is described as follows: Adiponectin ELISA on supernatant medium of primed 3T3L cells. Type of assay: cell-based, mouse. Particulars: 10 μg/ml peptide, versus no insulin control. The protocol:
3T3L cells were cultured in T75 culture flasks, in expansion medium (Millipore Corporation), and stored in a 5% CO2 humidified incubator at 37° C. Media was changed every two days until the cells reached 80% confluency. Cells were subcultured in a 96 well plate with a seeding density of 3×10^4 cells per cm^2.
Once cells had just reached confluency, expansion media was replaced with 0.5 mL of Adipogenic Induction Media per well containing 5% serum that had been screened for an ability to maintain stem cells in an undifferentiated state (LifeTechnologies). Cells were incubated for 48 hours at 37° C., 5% CO2. The Adipogenic Induction Media contained DMEM (low glucose, Gibco) +5% serum (LifeSciences) with 0.5 mM IBMX solution, 1 μM Dexamethasone Solution, and 100 μM Indomethacin Solution (priming stimulus). After 48 hr the Adipogenic Induction media was replaced with new media containing 10 μg/ml insulin alone (positive control), or 10 μg/ml peptide (experimental conditions). Negative controls were DMEM +5% serum only. Plates were incubated for two days prior to adiponectin ELISA analyses. Peptides were added daily at 10 μg/ml throughout the remainder of the experiment.
Adiponectin present in the supernatant medium was measured using a mouse adiponectin ELISA (Novex, LifeTechnologies). Briefly, supernatant medium was collected and diluted 1:100. One hundred microliters of the diluted supernatant medium was added to each well of the ELISA plate and incubated for one hour at 37° C. Wells were washed three times with 1× wash buffer and then 100 μl of antibody was added to each well and incubated for one hour at 37° C. The wells were then washed and incubated with 100 μl detector antibody for 1 hr at 37° C. The wells were washed five times with wash buffer and 100 μl of substrate solution was added to each well and incubated for twenty minutes in the dark. The reaction was then stopped by the addition of 100 μl stop solution. Plates were read at 450 nm and concentrations of adiponectin were derived from a standard curve included in the ELISA plate.
Insulin and the KSEVSK peptide (SEQ ID NO: 7) served as positive controls. […] In FIG. 7, values marked by asterisks represent significant changes relative to the no insulin control (i.e., the negative control) using a two-tailed Student's T test, p<0.05.
A general note: ELISA stands for enzyme-linked immunosorbent assay.

For “KTRAHHV (listed as Paenibacillus polymyxa)”, the “adipogenesis in vivo in mammary fat pads” value in assay [1] is recorded as “induce adipogenesis in vivo”; in assay [1] (listed as KTRASHHV) it was “able to induce adipogenesis in vivo”. Further, the “adipogenic activity in the adiponectin assay (adiponectin secretion)” value (from here on “adipogenic activity”) is recorded as “lack an ability to promote adipogenesis” with 3T3L cells and “did not exhibit adipogenic activity” in the assay on 3T3L cells (listed as KTRASHHV).

On to KLKDENSQLK (listed as Homo sapiens), for which the “adipogenesis in vivo in mammary fat pads” value in assay [1] is “exhibited activity”. Besides, in the assay with 3T3L cells, the “adipogenic activity” value is “exhibited activity”.

Take “KSEVSK (listed as Homo sapiens) [reference compound]”: the “adipogenesis in vivo in mammary fat pads” value in assay [1] is reported as “mammary fat pad enlargement”.

Consider “KLKDENSQLR (listed as Erinaceus europaeus)”, for which, in assay [1], the “adipogenesis in vivo in mammary fat pads” value is “not subsequently shown to be adipogenic”. Moreover, the “adipogenic activity” value in the assay on 3T3L cells is “not subsequently shown to be adipogenic”.
